Test results as given in patent EP0917542B1, “PROCESS FOR POLYMERIZATION OF OLEFINIC MONOMERS” (E.I. DU PONT DE NEMOURS AND COMPANY, priority 1996, dated 1998).

Experiment: Stability in neutral aqueous dispersion, followed by 19F NMR
Format: physicochemical
Conditions: aqueous dispersion with ammonium perfluorononanoate surfactant; heated in an oil bath at 100°C for 2 hr
Description: A solution of 2.41 g of ammonium perfluorononanoate (surfactant) in 1-L of deionized water was processed for 5 minutes through a Microfluidizer™ Model 110T with 4.14 g of n-perfluorobutanesulfonyl chloride. The mixture was cooled by passing though a coil chilled in ice water during the processing. A clear mixture was obtained. […] A second aliquot of the solution was heated in an oil bath at 100°C for 2 hr and then analyzed by ^19F NMR. […] A more concentrated mixture was prepared by adding 10.4 g of n-perfluorobutanesulfonyl chloride to a solution of 0.5 g ammonium perfluorononanoate in 100 mL of deionized water with processing through the Microfluidizer™.

- 19F NMR spectrum after heating (stability in a neutral aqueous mixture): essentially unchanged
Structure (SMILES): O=S(=O)(Cl)C(F)(F)C(F)(F)C(F)(F)C(F)(F)F [n-perfluorobutanesulfonyl chloride]
